Results as given in patent US10604514B2, “6-(5-membered heteroaryl)isoquinolin-3-yl carboxamides and preparation and use thereof” (Samumed, LLC, priority 2017, dated 2020).
Like-named read-outs stand apart in the source and are kept apart here.

Assays:
[1] = system: LL29 cells (primary human fibroblasts derived from IPF patients), α-smooth muscle actin; assay: Inhibition of fibrotic process: αSMA in TGF-β1-treated primary human fibroblasts from IPF patients (LL29 cells); assay type: cell-based; settings: Homo sapiens, Fibroblast; for EC50: 96 h, % αSMA-positive LL29 cells, TGF-β1 20 ng/mL, 4 days; for inhibition at 10 µM: read-out: percent inhibition at 10 μM
Method in brief: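 Read-out is the percentage of αSMA-positive cells by high-content imaging, excluding SYTOX green-positive dead/apoptotic cells, normalized to TGF-β1-only wells on the same plate. LL29 cells were exposed for 4 days at 37 °C to 20 ng/mL TGF-β1 plus 11-point, 2-fold compound dilutions in 0.1% DMSO.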

[2] = system: SW480 colon carcinoma cells; assay: Cell viability assay (CellTiter-Glo) in SW480 cells; assay type: cell-based, human;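 note: SW480 cells stably carrying an Sp5-luciferase TCF/LEF reporter, luminescent ATP signal as viability measure, DMSO-treated cells as control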
GSK3β kinase = GSK3β kinase (Homo sapiens (Human), UniProt P49841); assay: GSK3β kinase assay (Ser/Thr 09 peptide Z-lyte, FRET); assay type: biochemical; settings: method text calls the value IC50;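 note: Coumarin/fluorescein emission ratio converted to percent phosphorylation against unphosphorylated (0%) and phosphorylated (100%) controls, 1 h compound incubation at room temperature, 11-point threefold dilutions from 10 µM, run in duplicate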
Sequence of GSK3β kinase (P49841 whole entry): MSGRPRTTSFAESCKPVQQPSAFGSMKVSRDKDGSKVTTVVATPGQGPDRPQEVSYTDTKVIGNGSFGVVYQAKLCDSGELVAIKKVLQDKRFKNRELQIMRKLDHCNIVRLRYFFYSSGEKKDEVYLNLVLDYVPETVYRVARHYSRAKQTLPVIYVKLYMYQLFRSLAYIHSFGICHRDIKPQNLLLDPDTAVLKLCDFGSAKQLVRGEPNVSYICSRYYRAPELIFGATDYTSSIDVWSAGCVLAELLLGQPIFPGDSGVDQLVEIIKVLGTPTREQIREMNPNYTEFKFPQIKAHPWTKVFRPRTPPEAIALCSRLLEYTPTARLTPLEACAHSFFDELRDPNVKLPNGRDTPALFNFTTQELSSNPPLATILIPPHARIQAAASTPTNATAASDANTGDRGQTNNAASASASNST
Experimental: Representative compounds were screened using the assay procedure for GSK30 kinase activity as described below.
Each compound is dissolved in DMSO as a 10 mM stock and used to prepare compound source plates. Serial dilution (1:3, 11-point dose-response curves from 10 M to 0.0003 μM) and compound transfer was performed using the ECHO 550 (Labcyte, Sunnyvale, Calif.) into 1536-well black-walled round bottom plates (Corning).
This is a non-radioactive assay using fluorescence resonance energy transfer (FRET) between coumarin and fluorescein to detect kinase activity which is represented as ratio of coumarin emission/fluorescein emission.
The mixture is allowed to incubate with the representative compounds for one hour at room temperature. All reactions were performed in duplicate. Unphosphorylated (“0% Control”) and phosphorylated (“100% control”) forms of Ser/Thr 18 serve as control reactions.
After incubation, diluted Development Buffer is added to the reaction and allowed to further incubate for one hour at room temperature.
The percent phosphorylation is then calculated using the following formula: [1−((Em ratio×F100%)−C100%)/((C0%−C100%)+(Em ratio×(F100%−F0%)))].
Dose-response curves are generated and inhibitory concentration (IC50) values are calculated using non-linear regression curve fit in the Dotmatics' Studies Software (Bishops Stortford, UK).

[3] = system: Tau phosphorylation at Ser396 (pSer396), SH-SY5Y cells; assay: Tau phosphorylation at Ser396 (pSer396) in SH-SY5Y cells, ELISA/western blot; assay type: cell-based, human; settings: Homo sapiens;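 note: cell lysates probed for reduced Tau pSer396 via ELISA (colorimetric) or western blot (chemiluminescence), both with one shared pSer396 antibody, EC50 for lowering phosphorylation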
Experimental: Two days before treatment, cells were seeded onto 96 well plates at 5×10^4 cells/well.
Wells were visually checked for cell death or change in morphology and supernatants were tested for cytotoxicity by measurement of lactate dehydrogenase release (LDH, CytoToxOne kit, Promega) if necessary.
Cells were lysed with RIPA buffer complemented with phosphatase and protease inhibitors then lysates were spun down at 12,000 g for 10 min to remove any cellular debris. Lysates are then either directly tested for pSer396 by ELISA (Life Technology, Kit KHB7031) or loaded on NuPage Bis-Tris gels for western blot analysis. Colorimetric detection of ELISA signal is performed by Cytation3 plate reader (Biotek) and the chemiluminescence signal for HRP-linked antibodies used in western blotting is detected using a Carestream Image Station. The same pSer396 antibody is used for detection of pTau in both assays.

IL-6 = IL-6 inhibition in LPS-stimulated human peripheral blood mononuclear cells (HTRF); assay type: cell-based; settings: Homo sapiens, PBMC; for EC50: IL-6, LPS-stimulated huPBMCs, HTRF; for inhibition at 10 µM: read-out: percent value in parentheses below EC50 >10
Method in brief: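 EC50 from a 4-parameter fit of DMSO-normalized HTRF (665/620 nm) IL-6 signal, duplicates. Compound was added to fresh human PBMCs in 1% FBS RPMI for 2 h (top 10 μM, 3-fold, 0.25% DMSO) before 22 h stimulation with LPS at 50 ng/mL, 37 °C.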

[4] = system: Wnt activity (Sp5-Luc reporter in SW480 colon carcinoma cells); assay: Wnt activity screening assay (Sp5-Luc reporter gene assay); assay type: cell-based, human
Method in brief: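 Compounds at 10 points (1:3 steps, top 10 μM, 0.1% DMSO final) were incubated 36 to 48 h at 37° C with stable Sp5-Luc SW480 reporter cells in 1% FBS medium. Luciferase luminescence was then read and expressed relative to DMSO-only cells. Four-parameter variable-slope fitting yielded EC50 values.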

DYRK1A kinase = DYRK1A kinase (Homo sapiens (Human), UniProt Q13627); assay: DYRK1A kinase assay (Ser/Thr 18 peptide Z-lyte, FRET)
[5] = Homo sapiens, 96 h; cell viability, SW480 cells, four days, CellTiter-Glo
[6] = SH-SY5Y cells, overnight (16-18 h), read-out: pSer396 Tau EC50
[7] = Homo sapiens; Sp5-Luc reporter, SW480 cells, 36 to 48 hours
[8] = DYRK1A kinase, method text calls the value IC50
[9] = Homo sapiens, SW480; read-out: percent inhibition at 10 μM
[10] = Homo sapiens, SW480, read-out: percent inhibition at 10 μM

Structure (SMILES) | EC50 [2, 5] [nM] | EC50 (GSK3β kinase) [nM] | EC50 [3, 6] [µM] | EC50 (IL-6) [nM] | EC50 [4, 7] [nM] | EC50 (DYRK1A kinase; [8]) [nM] | EC50 (DYRK1A kinase) [nM] | EC50 [1] [nM] | inhibition at 10 µM [2, 9] [%] | inhibition at 10 µM [4, 9] [%] | inhibition at 10 µM [1] [%] | inhibition at 10 µM (IL-6) [%] | inhibition at 10 µM [2, 10] [%] | EC50 ([3]; SH-SY5Y, read-out: pSer396 Tau EC50 (μM)) [µM] | inhibition at 10 µM [4, 10] [%]
Cc1ncc(-c2ccc3cnc(NC(=O)[C@H]4CC[C@H](NCC(F)F)CC4)cc3c2)o1 [Compound 104, trans-4-((2,2-Difluoroethyl)amino)-N-(6-(2-methyloxazol-5-yl)isoquinolin-3-yl)cyclohexane-1-carboxamide] | 4590 | 149 | 0.712 | 1140 | 3600 | 8 |  | 220 |  |  |  |  |  |  | 
COCCN[C@H]1CC[C@H](C(=O)Nc2cc3cc(-c4cnn(C)c4)cc(F)c3cn2)CC1 [Compound 105, trans-N-(8-Fluoro-6-(1-methyl-1H-pyrazol-4-yl)isoquinolin-3-yl)-4-((2-methoxyethyl)amino)cyclohexane-1-carboxamide] | > 10000 | 550 | 2.2 | 1570 | > 10000 | 34 |  | 812 | 16.9 | 15.8 |  |  |  |  | 
Cc1nnc(-c2ccc3cnc(NC(=O)N4CCN(C)[C@H](C)C4)cc3c2)s1 [Compound 109, (R)-3,4-Dimethyl-N-(6-(5-methyl-1,3,4-thiadiazol-2-yl)isoquinolin-3-yl) piperazine-1-carboxamide] | 4130 | 175 | 3.1 | > 10000 | 7810 | 10 |  | > 10000 |  |  | 19.5 | 6.9 |  |  | 
Cc1nnc(-c2ccc3cnc(NC(=O)N4CC5CCC(C4)N5C)cc3c2)s1 [Compound 110, 8-Methyl-N-(6-(5-methyl-1,3,4-thiadiazol-2-yl)isoquinolin-3-yl)-3,8-diazabicyclo[3.2.1]octane-3-carboxamide] | > 10000 | 314 |  | > 10000 | > 10000 | 17 |  | 1970 |  |  |  | 7 | 1.5 | 2.1 | 24.5
Cc1nnc(-c2ccc3cnc(NC(=O)N4CCC(NC(CF)CF)CC4)cc3c2)s1 [Compound 121, 4-((1,3-Difluoropropan-2-yl)amino)-N-(6-(5-methyl-1,3,4-thiadiazol-2-yl)isoquinolin-3-yl)piperidine-1-carboxamide] | > 10000 | 82 | 0.953 | > 10000 | 8130 | 35 |  | > 10000 | 36.5 |  | 10.4 | 5.4 |  |  | 
Cc1ncc(-c2ccc3cnc(NC(=O)[C@H]4CC[C@H](NC(CF)CF)CC4)cc3c2)o1 [Compound 124, trans-4-((1,3-difluoropropan-2-yl)amino)-N-(6-(2-methyloxazol-5-yl)isoquinolin-3-yl)cyclohexane-1-carboxamide] | 1020 | 217 | 0.612 | 1880 | 3480 | 35 |  | 451 |  |  |  |  |  |  | 
Cc1nnc(-c2ccc3cnc(NC(=O)N4CCn5ccnc5C4)cc3c2)s1 [Compound 125, N-(6-(5-Methyl-1,3,4-thiadiazol-2-yl)isoquinolin-3-yl)-5,6-dihydroimidazo [1,2-a]pyrazine-7(8H)-carboxamide] | 1660 | 5 | 0.114 | 9270 | 1240 | 4 |  | 442 |  |  |  |  |  |  | 
Cc1ncc(-c2ccc3cnc(NC(=O)N4CCn5ccnc5C4)cc3c2)o1 [Compound 126, N-(6-(2-Methyloxazol-5-yl)isoquinolin-3-yl)-5,6-dihydroimidazo[1,2-a]pyrazine-7(8H)-carboxamide] | 488 | 24 | 0.197 | 363 | 1180 | 5 |  | 286 |  |  |  |  |  |  | 
Cc1nnc(-c2ccc3cnc(NC(=O)N4CCC(N5CCOCC5)CC4)cc3c2)s1 [Compound 128, N-(6-(5-Methyl-1,3,4-thiadiazol-2-yl)isoquinolin-3-yl)-4-morpholinopiperidine-1-carboxamide] | 4370 | 25 | 0.491 | > 10000 | 3180 | 16 |  | 6630 |  |  |  | 8 |  |  | 
Cc1nnc(-c2ccc3cnc(NC(=O)N4CCC(N5CCN(C)CC5)CC4)cc3c2)s1 [Compound 129, N-(6-(5-methyl-1,3,4-thiadiazol-2-yl)isoquinolin-3-yl)-4-(4-methylpiperazin-1-yl)piperidine-1-carboxamide] | 3620 | 90 | 0.656 | > 10000 | 1810 | 18 |  | 1990 |  |  |  | 4.5 |  |  | 

Continued, in another order:

EC50 [2, 5] [nM] | EC50 (GSK3β kinase) [nM] | EC50 [3, 6] [µM] | EC50 (IL-6) [nM] | EC50 [4, 7] [nM] | EC50 (DYRK1A kinase; [8]) [nM] | EC50 (DYRK1A kinase) [nM] | Structure (SMILES) | EC50 [1] [nM] | inhibition at 10 µM [2, 9] [%] | inhibition at 10 µM [4, 9] [%] | inhibition at 10 µM [1] [%] | inhibition at 10 µM (IL-6) [%] | inhibition at 10 µM [2, 10] [%] | EC50 ([3]; SH-SY5Y, read-out: pSer396 Tau EC50 (μM)) [µM] | inhibition at 10 µM [4, 10] [%]
4210 | 142 | 1.5 | > 10000 | 4040 | 37 |  | Cc1nnc(-c2ccc3cnc(NC(=O)N4CC[C@@H](NC(C)C)[C@H](F)C4)cc3c2)s1 [Compound 130, (3R,4R)-3-Fluoro-4-(isopropylamino)-N-(6-(5-methyl-1,3,4-thiadiazol-2-yl)isoquinolin-3-yl)piperidine-1-carboxamide] | 3300 |  |  |  | 12.2 |  |  | 
> 10000 | 6 | 0.337 | 1930 | 3920 | 13 |  | Cc1nnc(-c2ccc3cnc(NC(=O)N4CC[C@@H](N)[C@H](F)C4)cc3c2)s1 [Compound 131, (3R,4R)-4-Amino-3-fluoro-N-(6-(5-methyl-1,3,4-thiadiazol-2-yl)isoquinolin-3-yl)piperidine-1-carboxamide] | 1930 | 35.9 |  |  |  |  |  | 
2740 | 19 | 0.093 | 7130 | 593 |  | 6 | [2H]c1c(NC(=O)C2CCN(C)CC2)ncc2ccc(-c3nnc(C)s3)cc12 [Compound 134, 1-Methyl-N-(6-(5-methyl-1,3,4-thiadiazol-2-yl)isoquinolin-3-yl-4-d) piperidine-4-carboxamide] | 579 |  |  |  |  |  |  | 
> 10000 | 22 | 0.365 | > 10000 | 5690 |  | 41 | [2H]c1c(NC(=O)CN2CCOCC2)ncc2ccc(-c3nnc(C)s3)cc12 [Compound 135, N-(6-(5-Methyl-1,3,4-thiadiazol-2-yl)isoquinolin-3-yl-4-d)-2-morpholinoacetamide] | 2140 | 27.8 |  |  | 0 |  |  | 
1120 | 80 | 0.309 | 463 | 2110 |  | 6 | [2H]c1c(NC(=O)C2CCN(C)CC2)ncc2ccc(-c3cnc(C)o3)cc12 [Compound 136, 1-Methyl-N-(6-(2-methyloxazol-5-yl)isoquinolin-3-yl-4-d)piperidine-4-carboxamide] | 418 |  |  |  |  |  |  | 
> 10000 | 68 | 0.573 | 2280 | > 10000 |  | 18 | [2H]c1c(NC(=O)CN2CCOCC2)ncc2ccc(-c3cnc(C)o3)cc12 [Compound 137, N-(6-(2-Methyloxazol-5-yl)isoquinolin-3-yl-4-d)-2-morpholinoacetamide] | 3130 | 39 | 38.5 |  |  |  |  | 
7350 | 33 | 1.4 | > 10000 | 2820 |  | 22 | [2H]C([2H])([2H])C(N[C@H]1CCN(C(=O)Nc2cc3cc(-c4nnc(C)s4)ccc3cn2)C[C@@H]1F)C([2H])([2H])[2H] [Compound 139, (3S,4S)-3-Fluoro-N-(6-(5-methyl-1,3,4-thiadiazol-2-yl)isoquinolin-3-yl)-4-((propan-2-yl-1,1,1,3,3,3-d6)amino)piperidine-1-carboxamide] | 2350 |  |  |  | 6.6 |  |  | 
